Experimental data from paper PMC8167799, “Discovery and Characterization of the Biflavones From Ginkgo biloba as Highly Specific and Potent Inhibitors Against Human Carboxylesterase 2” (Frontiers in Pharmacology, 2021).

Target: T1, CES2 (Homo sapiens, UniProt O00748)
T1 construct: tissue Bioreclamation IVT; […]
T1 sequence (O00748 27-559): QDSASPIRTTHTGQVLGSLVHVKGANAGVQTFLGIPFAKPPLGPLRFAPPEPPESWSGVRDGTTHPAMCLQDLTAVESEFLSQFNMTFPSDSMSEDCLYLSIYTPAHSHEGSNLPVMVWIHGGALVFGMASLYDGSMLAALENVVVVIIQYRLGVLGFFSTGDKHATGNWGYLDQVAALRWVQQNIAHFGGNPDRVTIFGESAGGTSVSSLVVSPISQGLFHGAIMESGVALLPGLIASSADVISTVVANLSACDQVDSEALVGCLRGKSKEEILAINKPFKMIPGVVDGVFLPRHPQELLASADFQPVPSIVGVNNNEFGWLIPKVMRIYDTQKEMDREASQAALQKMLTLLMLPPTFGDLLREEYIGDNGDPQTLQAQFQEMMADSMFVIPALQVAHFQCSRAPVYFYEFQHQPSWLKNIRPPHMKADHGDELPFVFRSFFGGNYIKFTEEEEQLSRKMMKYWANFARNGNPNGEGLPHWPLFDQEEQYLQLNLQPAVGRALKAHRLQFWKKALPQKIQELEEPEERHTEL
Experiment: Inhibition of CES2-catalyzed FD hydrolysis in HLMs
Format: biochemical
Settings: FD as probe substrate, logarithm of IC50 in nM
Experimental: The incubation system contains following components (total volume 200 μL): 2 μL DMSO/inhibitor, 2 μL HLMs (2 μg/ml, final concentration), […] buffer PBS (pH = =7.4).

Quinatic acid
CES2 lg (IC50/nM): 3.72 ± 0.10
